Measured values as given in patent US20170266218A1, “NAD+ COENZYME FORMULATION AND METHODS OF MAKING AND USING THE SAME” (Steve McNerlin, priority 2016, published 2017).

Experiments:
[1] = system: hair growth (follicular stimulation; SIRT1 enzyme); assay: Database trial: weekly scalp micro injections of SIRT1 activator (NAD+), hair growth followed by trichoscan; assay type: in vivo, human
Method: All six patients underwent weekly micro injections to the subcutaneous fatty layer of the affected layer of the scalp using 4 ml of a SIRT1 Activator (NAD+) over a 24 week period using a commercially available Biophymed CE certified U225 mesotherapy device. The SIRT 1 activator was specially prepared from our written protocol.
Patients were followed for safety and tolerability as well as for monitoring differences in hair growth. In order to track progress over time, we employed global photography, and a 60 second patient observational assessment tool based on a standardized 60 second hair count protocol, haircount and trichoscan analysis (Fotofinder); Trichoscan analysis allows us to quantitatively track the following parameters: hair count, hair density, anagen/telogen rates, along with cumulative hair thickness Patients were asked to return to the clinic at 6 weeks, 12 weeks after the intervention.

[2] = Applicant's finding on therapeutic activity of NAD+ versus NADH for the disclosed uses
Text: As such, Applicant believes NAD+ alone is responsible for the activities disclosed herein. […] Applicant therefore defines NADH as having a negative net NAD+ value.

[3] = cited from earlier work

| SMILES | average increase in hair count ([1]; 12 week trichoscan parameters, six patients, weekly micro injections of 4 ml to subcutaneous fatty layer of scalp) [%] | preliminary results of hair growth trial ([1]; overall conclusion of the trial) | therapeutic effectiveness for the uses disclosed [2] | stability of solutions ([3]; 4° C. and neutral pH) | stability of solutions in acids or alkalis ([3]; acids or alkalis) |
| --- | --- | --- | --- | --- | --- |
| NC(=O)c1ccc[n+]([C@@H]2O[C@H](COP(=O)([O-])OP(=O)(O)OC[C@H]3O[C@@H](n4cnc5c(N)ncnc54)[C@H](O)[C@@H]3O)[C@@H](O)[C@H]2O)c1 [NAD+, Nicotinamide adenine dinucleotide] | 21 | statistically significant and positive | therapeutically effective | stable for about a week | decompose rapidly |
| NC(=O)C1=CN([C@@H]2O[C@H](COP(=O)(O)OP(=O)(O)OC[C@H]3O[C@@H](n4cnc5c(N)ncnc54)[C@H](O)[C@@H]3O)[C@@H](O)[C@H]2O)C=CC1 [NADH, reference compound] |  |  | entirely inactive |  |  |
